Laboratory results as given in patent US6337333B1, “Method of treating autoimmune disease with fludarabine-5′-monophosphate” (priority 1992, dated 2002).

Test system: IgG production
Test: Cumulative IgG production in SAC + rIL-2 cultures, EIA
Type: cell-based, human
Conditions: for accumulation of IgG: 5 and 10 day SAC rIL-2 cultures, preliminary studies; for effect on IgG production: FIG. 7B
Description: In FIG. 7, peripheral blood mononuclear cells (PBMC) enriched for B lymphocytes (BC92; 35% CD19, 33% CD20, 35% CD3) were continuously cultured for 5 days in either medium alone, Staphylococcus aureus Cowan I (SAC) plus interleukin 2 (IL-2) (50 U/ml), or SAC plus IL-2 in the presence of various concentrations of FLP or 2-chlorodeoxyadenosine (2CDA). After 5 days of culture, the supernatants were harvested and serial dilutions of supernatant assayed for huIgM and huIgG by EIA. The presence of IgM rheumatoid factor (IgM-RF) was determined by EIA using the Vectastain Biotin-Streptavidin amplification system. Results are reported as O.D. 405 nm units. Nonspecific binding of neat supernatant to uncoated wells was <0.05% of that seen with the respective coated wells. The results shown are from 1 representative experiment of 4 separate experiments conducted with 4 different sources of packed leukocytes.
In FIG. 8, peripheral blood mononuclear cells (PBMC) enriched for B lymphocytes (BC92, 35% CD19, 33% CD20, 35% CD3) were continuously cultured for 10 days in either medium alone, Staphylococcus aureus Cowan I (SAC) plus interleukin 2 (IL-2) (50 U/ml), or SAC plus IL-2 in the presence of various concentrations of FLP or 2CDA. At the end of the culture period, the supernatants were harvested and serial dilutions assayed for huIgM, huIgG, and IgM-RF by EIA. The cells were phenotyped by flowcytometry. Results are reported as O.D. 405 nm units. Nonspecific binding of neat supernatants to uncoated wells was <0.5% of that seen with parallel coated wells. The results shown are from 1 experiment representative of 3 separate experiments conducted with 3 different sources of packed leukocytes.
In FIG. 9, peripheral blood mononuclear cells (PBMC) (BC93; 22% CD19, 20% CD20, 78% CD3) were continuously cultured for 5 days in either medium alone, Staphylococcus aureus Cowan I (SAC) plus interleukin 2 (IL-2) (50 U/ml) or 20% T cell conditioned medium (Tcm) in the presence of various concentrations of FLP. At the end of the 5 day culture period, the supernatants were harvested and serial dilutions assayed for huIgM, huIgG, and IgM-RF by EIA. The results are reported as O.D. 405 nm units. Nonspecific binding of neat supernatants to uncoated wells was <0.05% of parallel coated wells. The results shown are from one representative experiment.
Immulon-2 (Dynatek Laboratories, #011-010-3450, Chantilly, Va.) flat-bottom 96 well microtiter plates were coated with 100 μl/well of a 2 μg/ml solution of goat F(ab′)2 anti-HuIgM (μ chain, CALTAG #H15100, So. San Francisco, Calif.) or goat F(ab′)2 anti-HuIgG (Fc sp., CALTAG #H10100) in 0.1 M sodium carbonate buffer, pH 9.6 overnight at 4° C. Uncoated wells were incubated with the carbonate buffer alone. The plates were rinsed and then incubated with 100 μl/well of 0.1% BSA/PBS for 1 hr at RT. The plates were rinsed twice with PBS and then incubated for 2 hrs at RT with the respective serial dilutions of culture supernatant and human IgM or IgG standards (Sigma, St.
Louis, Mo.). All dilutions were made in complete S-10 medium (see above). At the end of the incubation period, the plates were rinsed 3 times with PBS/0.05% Tween-20. 100 μl of a 1/500 dilution of goat F(ab′)2 anti-IgM (m) or anti-IgG (H+L) conjugated with alkaline phosphatase (Fisher Biotech, #OB1210-ALPH and #OB1220-ALPH, Pittsburg, Pa.) was added to each well and incubated for 1 hr at RT. The plates were rinsed 3-5 times with PBS/0.05% Tween-20 and 100 μl/well of p-nitrophenyl phosphate substrate (Bio-Rad, Richmond, Calif.) was added and incubated for 30 min. The wells were read at 405 nm with an InterMed NJ-2000 immunoreader. The concentration of sample IgM or IgG was calculated off of a standard curve using the XFROMY linear regression analysis on RS-1 (VAX-VMS). Nonspecific binding was determined from low-dilution samples incubated in parallel in uncoated wells (<0.005% O.D. 405 nm of coated wells). […]

Nc1nc(Cl)nc2c1ncn2[C@H]1C[C@H](O)[C@@H](CO)O1 [2CDA, 2-chlorodeoxyadenosine]
accumulation of IgG: dose-related decrease
effect on IgG production (one microgram per ml, 5 days): block
effect on IgG accumulation (one microgram per ml, 10 days): block the accumulation

Nc1nc(F)nc2c1ncn2[C@@H]1O[C@H](COP(=O)(O)O)[C@@H](O)[C@@H]1O [FLP, fludarabine-5′-monophosphate]
effect on IgG accumulation (0.1 μg/ml, 10 days, FIG. 8B): minimal effect
reduction of IgG accumulation (1 μg, 10 days, FIG. 8B): 80%
reduction of IgG accumulation (5 μg, 10 days, FIG. 8B): 98%
reduction of IgG accumulation (0.1 and 0.5 μg/ml, PBMC, 5 days, cultures supplemented with T cell conditioned medium, FIG. 9B): not seen
accumulation of IgG: dose-related decrease
effect on IgG production (one hundred nanograms per ml, 5 days): minimal effect
